Source: US4468511A, “C-20- And C-23-Modified macrolide derivatives” (Eli Lilly and Company, priority 1983, dated 1984)
In brackets after ≈: the same amount, converted by molar mass. Where two headings read alike, the source gives them in different places.

Experiments:
[1] = system: Staphylococcus epidermidis EPI1; assay: microbe, parasite or virus in culture; type: cell-based
Protocol: (§1) The MIC's in Table II were determined by standard agar-dilution assays. The MIC's in Table III were obtained using a conventional broth-dilution microtiter test.

[2] = system: Staphylococcus aureus S13E; assay: microbe, parasite or virus in culture; type: cell-based
Protocol: as §1

[3] = system: Streptococcus pyogenes C203; assay: Protection of mice experimentally infected with S. pyogenes C203; type: in vivo;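 also: two doses given 1 and 4 hours after infection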
Protocol: Some of the derivatives of this invention have shown in vivo antimicrobial activity against experimentally-induced infections in laboratory animals. When two doses of test compound were administered to mice experimentally infected with S. pyogenes C203, the activity observed was measured as an ED50 value [effective dose in mg/kg to protect 50% of the test animals: see Warren Wick, et al., J. Bacteriol. 81, 233-235 (1961)].

[4] = system: Staphylococcus epidermidis EPI2; assay: MIC, standard agar-dilution assay; type: cell-based; conditions: agar-dilution; Staphylococcus epidermidis EPI2; read-out: MIC
Protocol: as §1

[5] = system: Staphylococcus aureus X400; assay: MIC, standard agar-dilution assay; type: cell-based
Protocol: as §1

[6] = system: Haemophilus influenzae C.L.; assay: MIC, standard agar-dilution assay; type: cell-based
Protocol: as §1

Escherichia coli TEM = assay: MIC, standard agar-dilution assay; type: cell-based; conditions: agar-dilution; Escherichia coli TEM; read-out: MIC
Protocol: (§2) Certain of the derivatives are active against some gram-negative bacteria, such as Pasteurella species. The MIC's in Table II were determined by standard agar-dilution assays. The MIC's in Table III were obtained using a conventional broth-dilution microtiter test.

[7] = system: Streptococcus pyogenes 9960; assay: MIC, standard agar-dilution assay; type: cell-based
Protocol: as §2

[8] = system: Streptococcus Group D X66; assay: MIC, standard agar-dilution assay; type: cell-based
Protocol: as §2

[9] = system: Staphylococcus aureus X1.1; assay: MIC, standard agar-dilution assay; type: cell-based
Protocol: as §2

[10] = system: Streptococcus pneumoniae Park I; assay: MIC, standard agar-dilution assay; type: cell-based
Protocol: as §2

[11] = system: Klebsiella pneumoniae KAE; assay: MIC, standard agar-dilution assay; type: cell-based; conditions: agar-dilution; Klebsiella pneumoniae KAE; read-out: MIC
Protocol: as §2

[12] = system: Klebsiella pneumoniae X26; assay: MIC, standard agar-dilution assay; type: cell-based
Protocol: as §2

[13] = system: Staphylococcus aureus V41; assay: MIC, standard agar-dilution assay; type: cell-based
Protocol: as §2

Escherichia coli EC14 = assay: MIC, standard agar-dilution assay; type: cell-based; conditions: agar-dilution; Escherichia coli EC14; read-out: MIC
Protocol: as §2

[14] = system: Streptococcus pyogenes C203; assay: MIC, standard agar-dilution assay; type: cell-based
Protocol: as §2

Mycoplasma hyorhinis = assay: MIC, conventional broth-dilution microtiter test; type: cell-based
Protocol: as §2

[15] = system: Pasteurella multocida 17E; assay: MIC, conventional broth-dilution microtiter test; type: cell-based; conditions: broth-dilution microtiter; Pasteurella multocida 17E, Bovine isolate; read-out: MIC
Protocol: as §2

[16] = system: Pasteurella hemolytica 41D; assay: MIC, conventional broth-dilution microtiter test; type: cell-based; conditions: broth-dilution microtiter; Pasteurella hemolytica 41D; read-out: MIC
Protocol: as §2

[17] = system: Pasteurella multocida 60A; assay: MIC, conventional broth-dilution microtiter test; type: cell-based
Protocol: as §2

[18] = system: Pasteurella hemolytica 23C; assay: MIC, conventional broth-dilution microtiter test; type: cell-based; conditions: broth-dilution microtiter; Pasteurella hemolytica 23C; read-out: MIC
Protocol: as §2

Mycoplasma synoviae = assay: MIC, conventional broth-dilution microtiter test; type: cell-based; conditions: Mycoplasmopsis synoviae
Protocol: as §2

[19] = system: Pasteurella hemolytica 22C; assay: MIC, conventional broth-dilution microtiter test; type: cell-based; conditions: broth-dilution microtiter; Pasteurella hemolytica 22C; read-out: MIC
Protocol: as §2

[20] = system: Pasteurella multocida 22A; assay: MIC, conventional broth-dilution microtiter test; type: cell-based; conditions: broth-dilution microtiter; Pasteurella multocida 22A; read-out: MIC
Protocol: as §2

[21] = system: Mycoplasma gallisepticum 34159; assay: MIC, conventional broth-dilution microtiter test; type: cell-based; conditions: Mycoplasmoides gallisepticum
Protocol: as §2

Streptococcus sp. 80 = assay: MIC, conventional broth-dilution microtiter test; type: cell-based
Protocol: as §2

Staphylococcus aureus = assay: MIC, conventional broth-dilution microtiter test; type: cell-based; conditions: broth-dilution microtiter, read-out: MIC
Protocol: as §2

[22] = system: Pasteurella multocida 68C; assay: MIC, conventional broth-dilution microtiter test; type: cell-based
Protocol: as §2

Mycoplasma gallisepticum = assay: MIC, conventional broth-dilution microtiter test; type: cell-based; conditions: Mycoplasmoides gallisepticum
Protocol: as §2

[23] = system: Pasteurella multocida 40G; assay: MIC, conventional broth-dilution microtiter test; type: cell-based
Protocol: as §2

[24] = system: Mycoplasma gallisepticum 41313; assay: MIC, conventional broth-dilution microtiter test; type: cell-based; conditions: Mycoplasmoides gallisepticum
Protocol: as §2

[25] = system: Haemophilus influenzae 76; assay: MIC, standard agar-dilution assay; type: cell-based; conditions: agar-dilution; Haemophilus influenzae 76, Ampicillin-resistant strain; read-out: MIC
Protocol: as §1

[26] = agar-dilution, Staphylococcus epidermidis EPI1, read-out: MIC
[27] = agar-dilution, Staphylococcus aureus V41, Penicillin-resistant strain, read-out: MIC
[28] = broth-dilution microtiter, Mycoplasma hyorhinis, read-out: MIC
[29] = broth-dilution microtiter, Mycoplasma gallisepticum 34159, Resistant strain, read-out: MIC
[30] = broth-dilution microtiter, Streptococcus sp. 80, read-out: MIC
[31] = broth-dilution microtiter, Mycoplasma gallisepticum, read-out: MIC
[32] = broth-dilution microtiter, Mycoplasma gallisepticum 41313, Resistant strain, read-out: MIC
[33] = agar-dilution, Haemophilus influenzae C.L., Ampicillin-sensitive strain, read-out: MIC
[34] = agar-dilution, Streptococcus 9960, read-out: MIC
[35] = agar-dilution, Streptococcus Group D X66, read-out: MIC
[36] = agar-dilution, Streptococcus pneumoniae Park I, read-out: MIC
[37] = agar-dilution, Klebsiella pneumoniae X26, read-out: MIC
[38] = broth-dilution microtiter, Pasteurella multocida 60A, Avian isolate, read-out: MIC
[39] = broth-dilution microtiter, Pasteurella multocida 68C, read-out: MIC
[40] = broth-dilution microtiter, Pasteurella multocida 40G, read-out: MIC

Compound | MIC [1, 26] [µg/mL] | MIC [2] [µg/mL] | MIC [4] [µg/mL] | MIC (Escherichia coli TEM) [µg/mL] | MIC [11] [µg/mL] | MIC [13, 27] [µg/mL] | MIC (Escherichia coli EC14) [µg/mL] | MIC ([14]; Streptococcus pyogenes, C203) [µg/mL] | MIC (Mycoplasma hyorhinis; [28]) [µg/mL] | MIC [15] [µg/mL] | MIC [16] [µg/mL] | MIC [18] [µg/mL] | MIC [19] [µg/mL] | MIC [20] [µg/mL] | MIC [21, 29] [µg/mL] | MIC (Streptococcus sp. 80; [30]) [µg/mL] | MIC (Staphylococcus aureus) [µg/mL] | MIC (Mycoplasma gallisepticum; [31]) [µg/mL] | MIC [24, 32] [µg/mL] | MIC [25] [µg/mL] | also measured
CCC1OC(=O)CC(O)C(C)C(OC2OC(C)C(OC3CC(C)(O)C(O)C(C)O3)C(N(C)C)C2O)C(CCNCc2ccccc2)CC(C)C(=O)C=CC(C)=CC1C (centres unmarked) [Compound 25, 20-N-Benzylamino-20-deoxy-20-dihydro-DMOT] | 4 (≈ 4.9 µM) | 8 (≈ 9.79 µM) | 4 (≈ 4.9 µM) | > 128 | > 128 | 4 (≈ 4.9 µM) | > 128 | 2 (≈ 2.45 µM) | > 50 | > 50 | > 50 | > 50 | > 50 | > 50 | > 50 | 6.25 (≈ 7.65 µM) | 12.5 (≈ 15.3 µM) | 1.56 (≈ 1.91 µM) | > 50 |  | ED50 ([3]; C203, po, read-out: ED50 Oral): > 100 mg/kg; ED50 ([3]; C203, sc, read-out: ED50 Subcutaneous): > 25 mg/kg; MIC ([5]; agar-dilution, Staphylococcus aureus X400, Methicillin-resistant strain, read-out: MIC): 4 µg/mL (≈ 4.9 µM); MIC ([6]; Haemophilus influenzae): 64 µg/mL (≈ 78.3 µM); MIC [7]; 9960: 8 µg/mL (≈ 9.79 µM); MIC [8]: 8 µg/mL (≈ 9.79 µM); MIC ([9]; agar-dilution, Staphylococcus aureus X1.1, read-out: MIC): 4 µg/mL (≈ 4.9 µM); MIC ([10]; Streptococcus pneumoniae): 1 µg/mL (≈ 1.22 µM); MIC ([12]; Klebsiella pneumoniae, X26): 64 µg/mL (≈ 78.3 µM); MIC ([17]; Pasteurella multocida, 60A): 50 µg/mL (≈ 61.2 µM); MIC (Mycoplasma synoviae): 50 µg/mL (≈ 61.2 µM); MIC ([22]; Pasteurella multocida, 68C): 50 µg/mL (≈ 61.2 µM); MIC ([23]; Pasteurella multocida, 40G): 50 µg/mL (≈ 61.2 µM)
CCC1OC(=O)CC(O)C(C)C(OC2OC(C)C(OC3CC(C)(O)C(O)C(C)O3)C(N(C)C)C2O)C(CCN2C(=O)c3ccccc3C2=O)CC(C)C(=O)C=CC(C)=CC1C (centres unmarked) [Compound 26, 20-N-Phthalimido-20-deoxy-20-dihydro-DMOT] | 64 (≈ 74.7 µM) | 64 (≈ 74.7 µM) | 32 (≈ 37.3 µM) | > 128 | > 128 |  | > 128 | 64 (≈ 74.7 µM) | 50 (≈ 58.3 µM) | > 50 | > 50 | > 50 | > 50 | > 50 | 50 (≈ 58.3 µM) | > 50 | > 50 | 12.5 (≈ 14.6 µM) | 50 (≈ 58.3 µM) | > 128 | MIC ([5]; Staphylococcus aureus, X400): 64 µg/mL (≈ 74.7 µM); MIC [6, 33]: > 128 µg/mL; MIC [7, 34]: > 128 µg/mL; MIC [8, 35]: 128 µg/mL (≈ 149 µM); MIC ([9]; Staphylococcus aureus, X1.1): 64 µg/mL (≈ 74.7 µM); MIC [10, 36]: 8 µg/mL (≈ 9.33 µM); MIC [12, 37]: > 128 µg/mL; MIC ([13]; Staphylococcus aureus, V41): 32 µg/mL (≈ 37.3 µM); MIC [17, 38]: > 50 µg/mL; MIC [22, 39]: > 50 µg/mL; MIC [23, 40]: > 50 µg/mL
CCC1OC(=O)CC(O)C(C)C(OC2OC(C)C(OC3CC(C)(O)C(O)C(C)O3)C(N(C)C)C2O)C(CCN2C(=O)c3ccccc3C2=O)CC(C)C(=O)C=CC(C)=CC1CN1C(=O)c2ccccc2C1=O (centres unmarked) [Compound 38, 20,23-Di-N-phthalimido-20,23-dideoxy-20-dihydro-DMT] |  | 32 (≈ 31.9 µM) | 16 (≈ 16 µM) | > 128 | > 128 | 16 (≈ 16 µM) | > 128 |  |  | > 50 | > 50 | > 50 | > 50 | > 50 |  |  | 25 (≈ 24.9 µM) |  |  | > 128 | MIC ([1]; Staphylococcus epidermidis, EPI1): 32 µg/mL (≈ 31.9 µM); MIC ([5]; Staphylococcus aureus, X400): 64 µg/mL (≈ 63.9 µM); MIC [6, 33]: > 128 µg/mL; MIC [7, 34]: > 128 µg/mL; MIC [8, 35]: > 128 µg/mL; MIC ([9]; Staphylococcus aureus, X1.1): 64 µg/mL (≈ 63.9 µM); MIC [10, 36]: 16 µg/mL (≈ 16 µM); MIC [12, 37]: > 128 µg/mL; MIC ([14]; agar-dilution, Streptococcus pyogenes C203, read-out: MIC): > 128 µg/mL; MIC (Mycoplasma hyorhinis; Mycoplasma): 50 µg/mL (≈ 49.9 µM); MIC [17, 38]: > 50 µg/mL; MIC [21]; 34159: 50 µg/mL (≈ 49.9 µM); MIC (Streptococcus sp. 80; Streptococcus, SP.80): 50 µg/mL (≈ 49.9 µM); MIC [22, 39]: > 50 µg/mL; MIC (Mycoplasma gallisepticum): 50 µg/mL (≈ 49.9 µM); MIC [23, 40]: > 50 µg/mL; MIC [24]; 41313: 50 µg/mL (≈ 49.9 µM)
